US10179355B2, “Bioremediation enhancing agents and methods of use” (JRW BIOREMEDIATION, LLC, priority 2007, dated 2019)
Where “and” joins values, the source holds several entries; their conditions need not be identical. Equal entries are not always repeated.

Key:
[1] = tested on: dechlorinating bacteria known to convert PCE to ethene; assay: Set D: Efficiency by COD Analysis; type: cell-based, Dehalococcoides and Dehalobacter spp.
From the text: Efficiency may be defined as the percent of electron donor utilized for dechlorination, and may be calculated by dividing the pmoles of Chloride ion generated by the pmoles of electron donor consumed as measured by either Volatile Fatty Acid (VFA) analysis (Sets B, C, and G) or Chemical Oxygen Demand (COD) analysis (Set D and E). The Relative Efficiency of the electron donor utilization may be defined as the Efficiency of the Electron Donor divided by the Efficiency of the Lactate Control.
The COD analysis calculates the utilization of electron donor by measuring the starting COD and the final COD taking the difference and converting mg/L to pmoles of electrons. The pmoles of electrons used for dechlorination was determined from the calculated Chloride produced leading to an Efficiency and Relative Efficiency of electron donor utilization as compared to lactate.

[2] = tested on: dechlorinating bacteria known to convert PCE to ethene; assay: Set G: Additional Yeast Metabolites and Polysaccharides as Nutrients, PCE dechlorination microcosms (kinetics, Relative Rate, paired t-test); type: cell-based, Dehalococcoides and Dehalobacter spp.
From the text: Certain contaminated materials (or sites) may contain indigenous microbial communities that are sufficient for complete bioremediation of contaminants. For such sites, there is no need to add microbes unless the indigenous microbes are genetically deficient in achieving the desired clean-up goals. For those sites that are microbiologically limited, microorganisms may be added to the contaminated materials (or sites). In one embodiment, the inoculum may be a mixed culture of halo-respiring bacteria that have been enriched to reach an optimal cell density. These mixed cultures of halo-respiring bacteria may be typically obtained from sediment samples from rivers, streams or any waterways. More specifically, the inoculum used in the Examples was originated from a Sangamon River sediment sample (Lodge Park, Piatt County, Ill.) See, e.g., Brennan, R. A., Sanford, R. A. and Werth, C. J. (2006). “Biodegradation of Tetrachloroethene by Chitin Fermentation Products in a Continuous Flow Column System.” Journal of Environ. Engr., June 665-673. This culture had grown for several years on PCE, anaerobic basal salts medium, Wolfe's vitamin solution and various electron donors including lactate (1-2 millimolar (mM)), formate (4 mM) and chitin using the Volatile Interface Transfer Apparatus (VITA) reactor system at the University of Illinois. Brennan, R. A., and Sanford, R. A. (2002). “Continuous steady-state method using Tenax for delivering tetrachloroethene to chlororespiring bacteria.” Appl. Environ. Microbiol., 68(3), 1464-1467. […] Using 16S rRNA gene-specific primers, both Dehalococcoides and Dehalobacter spp. were detected. Quantitative real-time PCR has been used to determine that approximately 1.65×10^7 Dehalococcoides gene copies were present per ml of culture.
For purpose of this disclosure, each bottle may be started with a certain amount of PCE. At subsequent times each bottle may be sampled for the degradation daughter products of PCE, namely trichloroethene (TCE), cis-dichloroethene (DCE), vinyl chloride (VC) and ethene, etc. Trans-DCE and 1,1-DCE are also daughter products of PCE, but they may not be detectable under the conditions disclosed here.
The rate of degradation may be determined by calculating the number of pmoles of chloride ions removed from PCE and subsequently from the amounts of the daughter products generated. The calculation may be performed as follows: Chloride (μmoles)=[…]−4×PCE (μmoles)−3×TCE (pmoles)−2×DCE (μmoles)−VC (μmoles)
The alternative chloride calculation is: Chloride (μmoles)=TCE (μmoles)+2×DCE (μmoles)+3×VC (μmoles)+4×Ethene (μmoles)
Next, the dechlorination rate may be determined for each bottle at each time by dividing the Chloride generated by the time (days). The data may be then normalized to the lactate control by taking the ratio of Chloride Rate (pmoles/day) and the Lactate Control Chloride Rate (pmoles/day). This ratio is called Relative Rate and is dimensionless.
As shown in the Examples, a paired t-test has been conducted to calculate the probability that the Relative Rate of one group (i.e. with Nutrient) is greater than the other group (i.e. without Nutrient). The null hypothesis is that the underlying means of the two paired groups are equal. The Probability that one group has higher Relative Rates than the other group is shown in various tables in the Examples.
The following components were used in the system for bioremediating contaminated ground water microcosms in Examples 2-8: • 160 milliliter (ml) stoppered serum bottles • 100 ml of anaerobic culture medium, groundwater containing an excess of bioavailable phosphorus and nitrogen at 0.5 mM Phosphate and 1 mM ammonium degassed with a nitrogen sparge • Nominally 1 gram of limestone • 19.54 micromoles (pmoles) Perchloroethene (PCE) • An excess of various electron donors were utilized • 3 ml of inoculum containing dechlorinating bacteria known to convert PCE to ethene. […]

CC(O)C(=O)[O-].[Na+] (centres unmarked) [Lactate Control, sodium lactate]
% of e^− used for dechlor. [1]: 7% | Chloride ([1]; Efficiency by COD Analysis): 64.63 µmol | Relative Efficiency ([1]; relative to Lactate Control): 100% | Cl^− Rate ± s.d. ([2]; 0 days): 0.00 ± 0.00 µmol | Cl^− ± s.d. ([2]; 0 days): 0.00 ± 0.00 µmol | DCE ± s.d. ([2]; 0 days): 0.00 ± 0.00 µmol | Ethene ± s.d. ([2]; 0 days): 0.00 ± 0.00 µmol | PCE ± s.d. ([2]; 0 days): 20.80 ± 0.95 µmol | TCE ± s.d. ([2]; 0 days): 0.00 ± 0.00 µmol | VC ± s.d. ([2]; 0 days): 0.00 ± 0.00 µmol | Cl^− Rate ± s.d. ([2]; 21 days): 0.13 ± 0.05 µmol | Cl^− ± s.d. ([2]; 21 days): 2.83 ± 1.04 µmol | DCE ± s.d. ([2]; 21 days): 0.31 ± 0.18 µmol | Ethene ± s.d. ([2]; 21 days): 0.07 ± 0.01 µmol | PCE ± s.d. ([2]; 21 days): 18.6 ± 0.45 µmol | TCE ± s.d. ([2]; 21 days): 1.91 ± 0.71 µmol | VC ± s.d. ([2]; 21 days): 0.00 ± 0.00 µmol | Cl^− Rate ± s.d. ([2]; 35 days): 0.26 ± 0.10 µmol | Cl^− ± s.d. ([2]; 35 days): 8.95 ± 3.33 µmol | DCE ± s.d. ([2]; 35 days): 1.39 ± 0.72 µmol | Ethene ± s.d. ([2]; 35 days): 0.07 ± 0.00 µmol | PCE ± s.d. ([2]; 35 days): 10.80 ± 1.36 µmol | TCE ± s.d. ([2]; 35 days): 5.91 ± 1.90 µmol | VC ± s.d. ([2]; 35 days): 0.00 ± 0.00 µmol | Cl^− Rate ± s.d. ([2]; 50 days): 0.49 ± 0.10 µmol | Cl^− ± s.d. ([2]; 50 days): 24.59 ± 5.08 µmol | DCE ± s.d. ([2]; 50 days): 9.70 ± 2.99 µmol | Ethene ± s.d. ([2]; 50 days): 0.07 ± 0.00 µmol | PCE ± s.d. ([2]; 50 days): 3.13 ± 1.26 µmol | TCE ± s.d. ([2]; 50 days): 4.92 ± 1.03 µmol | VC ± s.d. ([2]; 50 days): 0.00 ± 0.00 µmol | Cl^− Rate ± s.d. ([2]; 79 days): 0.53 ± 0.02 µmol | Cl^− ± s.d. ([2]; 79 days): 42.00 ± 1.93 µmol | DCE ± s.d. ([2]; 79 days): 20.84 ± 0.96 µmol | Ethene ± s.d. ([2]; 79 days): 0.07 ± 0.00 µmol | PCE ± s.d. ([2]; 79 days): 0.00 ± 0.00 µmol | TCE ± s.d. ([2]; 79 days): 0.04 ± 0.07 µmol | VC ± s.d. ([2]; 79 days): 0.00 ± 0.01 µmol | Cl^− Rate ± s.d. ([2]; 138 days): 0.24 ± 0.01 µmol | Cl^− ± s.d. ([2]; 138 days): 33.42 ± 1.26 µmol | DCE ± s.d. ([2]; 138 days): 16.55 ± 0.64 µmol | Ethene ± s.d. ([2]; 138 days): 0.06 ± 0.00 µmol | PCE ± s.d. ([2]; 138 days): 0.00 ± 0.00 µmol | TCE ± s.d. ([2]; 138 days): 0.00 ± 0.00 µmol | VC ± s.d. ([2]; 138 days): 0.03 ± 0.03 µmol | Relative Rate ([2]; bottle 1, 21 days): 0.78 | Relative Rate ([2]; bottle 1, 35 days): 0.63 | Relative Rate ([2]; bottle 1, 50 days): 0.86 | Relative Rate ([2]; bottle 1, 79 days): 1.08 | Relative Rate ([2]; bottle 1, 138 days): 0.51 | Relative Rate ([2]; bottle 2, 21 days): 1.43 | Relative Rate ([2]; bottle 2, 35 days): 1.37 | Relative Rate ([2]; bottle 2, 50 days): 1.24 | Relative Rate ([2]; bottle 2, 79 days): 1.13 | Relative Rate ([2]; bottle 2, 138 days): 0.49 | Relative Rate ([2]; bottle 3, 21 days): 0.80 | Relative Rate ([2]; bottle 3, 35 days): 1.00 | Relative Rate ([2]; bottle 3, 50 days): 0.90 | Relative Rate ([2]; bottle 3, 79 days): 1.03 | Relative Rate ([2]; bottle 3, 138 days): 0.48 | dechlorination kinetics / completeness of dechlorination (in words) ([2]; through 138 days): statistically higher dechlorination kinetics as compared to PS1 and molasses | Relative Rate ([2]; time 21 days, bottles 1-3): 1.43 and 0.80 and 0.78 | Relative Rate ([2]; time 50 days, bottles 1-3): 1.24 and 0.90 and 0.86 | Relative Rate ([2]; time 79 days, bottles 1-3): 1.08 and 1.13 and 1.03 | Relative Rate ([2]; time 138 days, bottles 1-3): 0.51 and 0.49 and 0.48
